The record followed here is PubChem BioAssay (NCI).

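Growth conditions: 96-well plates. Treatment: test compound, 48 hours, 5 concentrations. Analysis: linear interpolation between bracketing concentrations; unreached endpoints set to highest concentration. At the TGI there is no net growth.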 Bounds are passed on as bounds.

Test in all cases: NCI-60 cell line screen, 48 h
Test [1] deals with HCT-15 colon.
Test [2] deals with DU-145 prostate.
Test [3] concerns RXF 393 renal.
For test [4], the system named is RPMI-8226 leukemia.
The subject of test [5] is NCI-H522 lung.
The test system of test [6] is SF-268 CNS.
For test [7], the system named is OVCAR-4 ovarian.
In test [8] the test system is SW-620 colon.
Test [9] has as its system SK-MEL-5 melanoma.
Test [10] concerns MDA-MB-435.
Test [11] deals with KM12 colon.
The subject of test [12] is SNB-75 CNS.
In test [13] the test system is ACHN renal.
Test [14] has as its system A498 renal.
In test [15] the test system is M14 melanoma.
Test [16] has as its system SR leukemia.
The test system of test [17] is COLO 205 colon.
For test [18], the system named is HT29 colon.
Test [19] has as its system EKVX NSCLC.
Test [20] has as its system MCF7 breast.

As to `O=C1C(Cl)C(c2cc3cc(Br)ccc3nc2Cl)N1c1ccc(Cl)cc1` (stereo not given), the TGI stood at 13.3 µM in [1]; 19.7 µM in test [2]; 10.6 µM in [3]; 14.1 µM in test [4]; 8.25 µM in test [5]; 9.69 µM in test [6]. The TGI in test [7] is 9.4 µM; in test [8] it was greater than 25 µM; in test [9], 6.38 µM; in test [10], 17.7 µM; in test [11], greater than 25 µM; in [12], 19.5 µM. The TGI is 11.2 µM in [13]; greater than 25 µM in [14]; 20.9 µM in [15]; 7.46 µM in [16]; 10.2 µM in test [17]; 19.6 µM in [18]. Moreover, the TGI was determined as 8.13 µM in [19] and 7.47 µM in test [20].

On to `O=c1c2cc([N+](=O)[O-])ccc2nc2n1CCCCC2`, for which the TGI in [1], in test [2], in test [3], in [4], in test [5] and in test [6] was greater than 100 µM throughout. Besides, the TGI in test [7], in test [8], in test [9], in test [10], in [11] and in test [12] was greater than 100 µM in each case. The TGI in test [13], in test [14], in [15], in test [16], in test [17] and in [18] was greater than 100 µM each time. Further, the TGI in test [19] and in test [20] was greater than 100 µM in each case.

On to `Cc1nc2c(o1)C(=O)c1ccccc1C2=Nc1ccc(N2CCOCC2)cc1`, for which the TGI stood at 15.8 µM in [1]; 7.81 µM in [2]; 2.97 µM in test [3]; 25.5 µM in [4]; 7 µM in [5]; 23.6 µM in test [6]. The TGI in test [7] is 12.4 µM; in test [8], 26.5 µM; in [9], 3.2 µM; in [10] it was 3.58 µM; in test [11], 66.8 µM; in test [12], 5.03 µM. For the same compound, the TGI in test [13] is 18.9 µM; in [14] it was 35.4 µM; in test [15], 3.27 µM; in [16] it was 13.3 µM; in test [17], 55.5 µM; in test [18], 60.9 µM. Besides, the TGI was determined as 17.4 µM in test [19] and 7.9 µM in test [20].

With `COc1ccc(/C(CC2OC(=O)c3ccccc32)=N\NC(=O)C[N+](C)(C)C)cc1` (stereo not given), the TGI in test [1] is 44.8 µM; in test [2] it was 63.4 µM; in [3], 77.6 µM; in test [4], 39.6 µM; in test [5] it was 64.1 µM; in [6], greater than 100 µM. Also, the TGI in [7] came to 78.5 µM; in [8], 64.1 µM; in test [9] it was 59.9 µM; in [10], 71.9 µM; in test [11], 52 µM; in test [12], 75.6 µM. Moreover, the TGI in [13] is greater than 100 µM; in [14] it was 60.1 µM; in test [15], greater than 100 µM; in test [16], 45.4 µM; in [17], 71 µM; in [18], 40.9 µM. In addition, the TGI in test [19] and in test [20] was greater than 100 µM each time.

For the compound `C[C@]12CC[C@H](O)CC1=CC[C@@H]1[C@@H]2CC[C@]2(C)C(=N/O)/C(=C/c3ccc([N+](=O)[O-])cc3)C[C@@H]12`, the TGI in [1] was determined as 29.8 µM; in test [2] it was 21.6 µM; in test [3] it was 15.6 µM; in test [4] it was 50.6 µM; in [5] it was 16.4 µM; in test [6] it was 24.8 µM. The TGI in test [7] was greater than 100 µM; in test [8], greater than 100 µM; in test [9], 3.32 µM; in test [10] it was 40.8 µM; in test [11], 60.1 µM; in test [12] it was 18 µM. In addition, the TGI is 15.1 µM in [13]; 11.7 µM in test [14]; 21.1 µM in test [15]; 22.5 µM in test [16]; 15.7 µM in test [17]; 23.5 µM in test [18]. Also, the TGI in test [19] is 7.37 µM; in test [20], 18.2 µM.

On to `CN1CCN(CCCCN2c3ccccc3Sc3cc(N=[N+]=[N-])ccc32)CC1`, for which the TGI in test [1] worked out at 5.68 µM; in test [2], 15.1 µM; in [3], 9.83 µM; in test [4], 5.88 µM; in [5], 3.31 µM; in test [6], 22.4 µM. Further, the TGI amounted to 7.5 µM in [7]; 3.47 µM in test [8]; 3.04 µM in [9]; 3.17 µM in test [10]; 3.48 µM in test [11]; 10.1 µM in test [12]. The TGI is 4.56 µM in [13]; 22.8 µM in test [14]; 3.28 µM in test [15]; greater than 100 µM in test [16]; 3.25 µM in [17]; 3.03 µM in test [18]. Moreover, the results for the TGI in test [19] and in test [20] were 15.1 µM and 3.63 µM, respectively.
